# According to ChEMBL document CHEMBL1153180, “Discovery and initial optimization of 5,5'-disubstituted aminohydantoins as potent beta-secretase (BACE1) inhibitors” (Bioorg Med Chem Lett, 2010):
# Tests used:
# Beta-secretase 1 [1] = molecular target: T1, Beta-secretase 1 (Homo sapiens, UniProt P56817); assay: Inhibition of human BACE1 by FRET assay
# Beta-secretase 2 = molecular target: T2, Beta-secretase 2 (Homo sapiens, UniProt Q9Y5Z0); assay: Inhibition of human BACE2 by FRET assay
# T2 sequence (Q9Y5Z0 whole entry): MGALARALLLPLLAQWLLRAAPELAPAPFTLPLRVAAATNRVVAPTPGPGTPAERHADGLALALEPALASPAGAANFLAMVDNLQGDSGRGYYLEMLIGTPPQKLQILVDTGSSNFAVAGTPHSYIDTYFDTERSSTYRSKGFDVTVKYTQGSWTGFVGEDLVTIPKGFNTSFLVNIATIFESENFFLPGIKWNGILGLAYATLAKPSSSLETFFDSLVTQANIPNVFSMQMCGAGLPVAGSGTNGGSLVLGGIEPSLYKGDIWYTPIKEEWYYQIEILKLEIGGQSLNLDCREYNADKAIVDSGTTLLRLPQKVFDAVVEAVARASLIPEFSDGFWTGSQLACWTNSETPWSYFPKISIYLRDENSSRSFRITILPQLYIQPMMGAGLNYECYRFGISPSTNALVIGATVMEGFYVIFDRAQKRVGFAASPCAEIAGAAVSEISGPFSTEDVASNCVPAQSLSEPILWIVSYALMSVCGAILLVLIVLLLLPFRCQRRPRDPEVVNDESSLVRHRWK
# Beta-secretase 1 [2] = molecular target: Beta-secretase 1 (Cricetulus griseus, UniProt G3IAK4); assay: Inhibition of human recombinant APP expressed in CHO-K1 cells assessed as reduction of amyloid beta level by ELISA; format: cell-based
# Cathepsin D [3] = molecular target: T3, Cathepsin D (Homo sapiens, UniProt P07339); assay: Inhibition of human cathepsin D by FRET assay
# [4] = Membrane permeability by PAMPA; format: ADME; details: read-out: permeability
# [5] = Membrane permeability by PAMPA-BBB assay; format: ADME; details: read-out: permeability
# [6] = Solubility at pH 7.4; format: physicochemical; details: buffer
# Cathepsin D [7] = molecular target: T3, Cathepsin D; assay: Inhibition of human cathepsin D at 100 uM by FRET assay
# Beta-secretase 1 [8] = molecular target: T1, Beta-secretase 1; assay: Inhibition of human BACE1 at 5 uM by FRET assay
# T3 sequence (P07339 65-162 limits assumed): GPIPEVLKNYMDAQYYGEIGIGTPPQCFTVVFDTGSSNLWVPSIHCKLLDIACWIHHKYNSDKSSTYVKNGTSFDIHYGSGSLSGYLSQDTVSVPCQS
# T3 sequence (P07339 169-412 limits assumed): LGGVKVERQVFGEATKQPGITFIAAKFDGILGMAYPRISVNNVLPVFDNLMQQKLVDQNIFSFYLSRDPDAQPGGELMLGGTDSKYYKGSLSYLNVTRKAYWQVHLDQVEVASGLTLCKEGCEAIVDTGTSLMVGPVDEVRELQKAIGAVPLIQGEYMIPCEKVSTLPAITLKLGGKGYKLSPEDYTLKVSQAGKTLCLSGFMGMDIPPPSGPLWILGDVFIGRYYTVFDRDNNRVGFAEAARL
# T1 sequence (P56817 whole entry): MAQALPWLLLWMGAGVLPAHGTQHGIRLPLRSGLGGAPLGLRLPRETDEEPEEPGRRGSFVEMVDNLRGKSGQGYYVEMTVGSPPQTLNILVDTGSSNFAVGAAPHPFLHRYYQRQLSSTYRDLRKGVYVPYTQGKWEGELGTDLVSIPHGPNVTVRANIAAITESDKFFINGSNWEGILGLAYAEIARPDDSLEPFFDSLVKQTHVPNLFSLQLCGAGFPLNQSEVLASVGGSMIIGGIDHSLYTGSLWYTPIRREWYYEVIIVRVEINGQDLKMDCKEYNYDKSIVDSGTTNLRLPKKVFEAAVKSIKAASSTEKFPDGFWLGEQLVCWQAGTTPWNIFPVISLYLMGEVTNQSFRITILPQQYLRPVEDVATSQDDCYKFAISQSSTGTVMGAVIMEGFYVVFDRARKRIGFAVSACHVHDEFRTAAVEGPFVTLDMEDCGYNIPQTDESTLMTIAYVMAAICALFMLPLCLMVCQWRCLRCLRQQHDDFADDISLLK
# Chain of Beta-secretase 1 (Cricetulus griseus, UniProt G3IAK4) (G3IAK4 whole entry): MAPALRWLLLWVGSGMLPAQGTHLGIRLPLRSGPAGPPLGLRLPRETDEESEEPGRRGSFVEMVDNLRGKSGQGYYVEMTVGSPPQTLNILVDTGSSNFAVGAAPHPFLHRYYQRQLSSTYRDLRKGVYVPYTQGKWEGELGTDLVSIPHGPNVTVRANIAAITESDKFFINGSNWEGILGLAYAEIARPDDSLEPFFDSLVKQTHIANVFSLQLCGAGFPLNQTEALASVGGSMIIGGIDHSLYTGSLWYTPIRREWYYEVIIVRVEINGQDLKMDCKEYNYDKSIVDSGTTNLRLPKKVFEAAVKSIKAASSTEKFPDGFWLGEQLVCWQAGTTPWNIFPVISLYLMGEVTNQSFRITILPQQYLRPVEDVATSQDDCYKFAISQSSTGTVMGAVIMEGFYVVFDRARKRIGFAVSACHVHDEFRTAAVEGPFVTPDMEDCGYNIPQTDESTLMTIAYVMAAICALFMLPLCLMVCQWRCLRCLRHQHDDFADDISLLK
Compound,IC50 (Beta-secretase 1 [1]) [nM],IC50 (Beta-secretase 2) [nM],further results
NC1=NC(c2ccccc2)(C2CCCCC2)C(=O)N1Cc1ccccc1 (stereo not drawn),1240,570,
CCCC(=O)Nc1cccc(C2(C3CCCCC3)N=C(N)N(C)C2=O)c1 (stereo not drawn),2850,490,
CN1C(=O)C(C2CCCCC2)(C2CCCCC2)N=C1N,1080,510,EC50 (Beta-secretase 1 [2]): 1030 nM; inhibition (Cathepsin D [7]): 33%; Papp [4]: 2.9 ×10⁻⁶ cm/s; Papp [5]: 7.7 ×10⁻⁶ cm/s; solubility [6]: > 100 µg/mL
NC1=NC(c2ccccc2)(C2CCCCC2)C(=O)N1Cc1cc(F)cc(F)c1 (stereo not drawn),1080,410,
COCCC(=O)Nc1cccc(C2(C3CCCCC3)N=C(N)N(C)C2=O)c1 (stereo not drawn),7860,1850,
CN1C(=O)C(c2ccccc2)(c2ccccc2)N=C1N,,770,EC50 (Beta-secretase 1 [2]): 4170 nM; inhibition (Cathepsin D [7]): 34%; Papp [4]: 3 ×10⁻⁶ cm/s; Papp [5]: 11.1 ×10⁻⁶ cm/s; solubility [6]: > 100 µg/mL
CN1C(=O)C(c2ccccc2)(C2CCCCC2)N=C1N (stereo not drawn),990,510,EC50 (Beta-secretase 1 [2]): 810 nM; IC50 (Cathepsin D [3]): 24000 nM; inhibition (Cathepsin D [7]): 38%; Papp [4]: 7.2 ×10⁻⁶ cm/s; Papp [5]: 12.8 ×10⁻⁶ cm/s; solubility [6]: > 100 µg/mL
CN1C(=O)C(c2cccc(NC(=O)c3ccc4c(c3)OCO4)c2)(C2CCCCC2)N=C1N (stereo not drawn),380,1150,
NC1=NC(c2ccccc2)(C2CCCCC2)C(=O)N1C[C@H]1CC[C@H](C(=O)O)CC1 (stereo partly drawn),390,120,
NC1=NC(c2ccccc2)(C2CCCCC2)C(=O)N1CCCO (stereo not drawn),,1650,inhibition (Beta-secretase 1 [8]): 56%
COc1cccc(C(=O)Nc2cccc(C3(C4CCCCC4)N=C(N)N(C)C3=O)c2)c1 (stereo not drawn),1360,490,
NC1=NC(c2ccccc2)(c2ccccc2)C2=NCCCN12,,,EC50 (Beta-secretase 1 [2]): 16000 nM; inhibition (Cathepsin D [7]): 2%; Papp [4]: 1 ×10⁻⁶ cm/s; Papp [5]: 8.6 ×10⁻⁶ cm/s; solubility [6]: 55 µg/mL

# The remaining compounds from weak to strong by IC50 (Beta-secretase 2), led by results:
IC50 (Beta-secretase 1 [1]) [nM],IC50 (Beta-secretase 2) [nM],Compound,further results
950,310,NC1=NC(c2ccccc2)(C2CCCCC2)C(=O)N1CCCCCC(=O)O (stereo not drawn),
1390,270,CCCCCCN1C(=O)C(c2ccccc2)(C2CCCCC2)N=C1N (stereo not drawn),
,180,CN1C(=O)C(c2cccc(NC(=O)c3cccn3C)c2)(C2CCCCC2)N=C1N (stereo not drawn),
1040,170,NC1=NC(c2ccccc2)(C2CCCCC2)C(=O)N1CC1CCCO1 (stereo not drawn),
,40,COCC(=O)Nc1cccc(C2(C3CCCCC3)N=C(N)N(C)C2=O)c1 (stereo not drawn),
,30,Cc1ccoc1C(=O)Nc1cccc(C2(C3CCCCC3)N=C(N)N(C)C2=O)c1 (stereo not drawn),EC50 (Beta-secretase 1 [2]): 180 nM; IC50 (Cathepsin D [3]): 17100 nM; Papp [4]: 1.4 ×10⁻⁶ cm/s; Papp [5]: 13.7 ×10⁻⁶ cm/s; solubility [6]: 41 µg/mL
100,20,CN1C(=O)C(c2cccc(NC(=O)c3ccco3)c2)(C2CCCCC2)N=C1N (stereo not drawn),
